Values quoted from earlier work in patent US11439638B1, “Drug and diagnostic combination system to identify and treat single-stranded RNA viruses including coronaviruses” (priority 2021, dated 2022).

What was measured:
[1] = system: influenza viruses, arenaviruses, bunyaviruses, and filoviruses
[2] = system: SARS-CoV-2; details: mammalian cells, in vitro
[3] = system: yellow fever virus
[4] = system: dengue virus

| Compound | effectiveness against viruses [1] | replication of SARS-CoV-2 [2] | inhibition of yellow fever virus [3] | inhibition of dengue virus [4] |
| --- | --- | --- | --- | --- |
| NC(=O)c1nc(F)c[nH]c1=O [Favipiravir, favipiravir] | effective |  |  |  |
| NC(=O)c1nc(F)cn([C@@H]2O[C@H](COP(=O)(O)OP(=O)(O)OP(=O)(O)O)[C@@H](O)[C@H]2O)c1=O [favipiravir-RTP] | effective |  |  |  |
| ivermectin |  | slow replication | inhibit | inhibit |
